Assay results as given in patent publication US10265322B2, “Use of PAR-1 antagonists for preventing and/or treating pelvi-perineal functional pathological conditions” (PIERRE FABRE MEDICAMENT, priority 2013, dated 2019).
Counter-ions that a name gives are not always drawn.

Columns and labels:
PAR [1] = assay: trypsin-induced contraction of rat-isolated bladder strips, naive animals; conditions: for effect on trypsin-induced bladder contraction at the other concentrations: other concentrations tested; for amplitude of bladder contraction: trypsin 3000 BAEE U/mL; for reduction in bladder contraction: trypsin
Excerpt: (§1) Purpose of the experiment: Evaluate the role of 3-(2-Chloro-phenyl)-1-[4-(4-fluoro-benzyl)-piperazin-1-yl]-propenone on the amplitude of bladder contraction induced by trypsin and TFLLR. The experiment was led in parallel on naïve bladders and on bladders subjected to inflammation procedure. The effect of the compound of the invention was compared with that of a reference PAR1 antagonist: compound SCH203099, (Ahn et al. Biochem. Pharmacol. 60(10:1425-1434, 2000).
(§2) In naïve rats (no administration of cyclophosphamide) or 24 hours after administration of cyclophosphamide, the animals were anaesthetised with pentobarbital (60 mg/kg) and euthanized. The bladder was rapidly taken and placed in modified Krebs-Henseleit oxygenated solution having the following composition (mM): NaCl 114; KCl 4.7; CaCl2 2.5; MgSO4 1.2; KH2PO4 1.2; NaHCO3 25 and glucose 11.7 (pH 7.4 with 95% O2 and 5% CO2). The bladder was cleaned of conjunctive tissue, weighed, the distal and proximal portions removed and the bladder cut in longitudinal direction into two equal strips. These strips were attached with silk thread and immersed in a 10 mL isolated organ bath (EMKA Technologies) containing the Krebs-Henseleit oxygenated solution with 95%:5% mixture of O2/CO2 held at 37° C. The bladder strips were connected via the silk thread to isometric sensors (IT50 model, EMKA Technologies) connected to amplifiers (EMKA Technologies). Contractile responses were recorded using IOX2® software (EMKA Technologies).
(§3) For an initial stabilisation period of at least 90 minutes, rinsing operations were carried out every 15 minutes and the tensioning of each bladder strip readjusted to 1.0 g. The strips were then exposed to 50 mM KCl to verify their viability. If the contraction amplitude of the strips was less than 1.0 g, the tissues were discarded and not included in the experiment. After a second stabilisation and washing period of at least 45 minutes, a concentration of the compound of the invention or of the reference product (SCH203099) or of the vehicle was incubated for 30 minutes. A concentration-accumulative response curve to the selective agonist PAR1, to TFLLR (0.1 μM to 0.1 mM) or to trypsin (10 U to 10,000 BAEE U/mL) was plotted.
(§4) These experiments were conducted on naive bladders. The protocol followed was the same as the protocol described in Example 1.

PAR [2] = assay: trypsin-induced contraction of rat-isolated bladder strips, inflammation conditions (cyclophosphamide); conditions: for amplitude of bladder contraction / reduction in bladder contraction: inflamed rat bladder; for amplitude of bladder contraction: trypsin 3000 BAEE U/mL; for reduction in bladder contraction: trypsin
Excerpt: as §1
(§5) To induce inflammation of the bladder, cyclophosphamide was bilaterally injected into the rats (Female Wistar Han rats weighing 250 to 275 g on the day of the experiment, obtained from Charles River laboratory, France) via intraperitoneal route at a dose of 150 mg/kg in a final volume of 5 mL/kg.
as §2, §3

PAR1 [3] = target: T1, PAR1 (Rattus norvegicus, UniProt P26824); assay: TFLLR-induced contraction of rat-isolated bladder strips, naive animals
T1 construct: the bladder cut in longitudinal direction into two equal strips; from tissue; host or cells: isolated bladder strips of female Wistar Han rats (naive or 24 h after cyclophosphamide)
T1 sequence (P26824 22-432): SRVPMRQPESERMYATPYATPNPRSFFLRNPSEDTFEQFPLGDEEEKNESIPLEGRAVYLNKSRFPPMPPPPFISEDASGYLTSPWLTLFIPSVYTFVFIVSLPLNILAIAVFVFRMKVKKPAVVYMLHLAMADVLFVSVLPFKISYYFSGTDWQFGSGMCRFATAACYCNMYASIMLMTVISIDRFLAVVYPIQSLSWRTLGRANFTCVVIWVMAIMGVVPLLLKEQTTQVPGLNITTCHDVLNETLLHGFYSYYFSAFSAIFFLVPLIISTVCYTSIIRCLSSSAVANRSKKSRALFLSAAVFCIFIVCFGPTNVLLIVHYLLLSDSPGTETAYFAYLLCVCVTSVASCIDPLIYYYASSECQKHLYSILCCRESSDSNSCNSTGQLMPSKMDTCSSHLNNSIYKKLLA
Excerpt: as §1, §2, §3, §4

PAR1 [4] = target: T1, PAR1; assay: TFLLR-induced contraction of rat-isolated bladder strips, inflammation conditions (cyclophosphamide); conditions: inflamed rat bladder, 100 μM TFLLR
Excerpt: as §1, §5, §2, §3

[5] = solubility of the compound in the organ bath experiment; format: physicochemical; conditions: noted at 10 μM and 30 μM in organ bath

amplitude of bladder contraction (PAR1 [3]; 100 μM TFLLR, compound 10 nM)	reduction in bladder contraction (PAR1 [3]; 100 μM TFLLR, compound 10 nM)	amplitude of bladder contraction (PAR1 [3]; 100 μM TFLLR, compound 1 μM)	Structure (SMILES)	effect on trypsin-induced bladder contraction versus vehicle (PAR [1]; compound 10 μM)	effect on trypsin-induced bladder contraction at the other concentrations (PAR [1])	amplitude of bladder contraction (PAR [1]; compound 10 μM)	amplitude of bladder contraction (PAR [2]; compound 10 μM)	amplitude of bladder contraction (PAR [2]; compound 30 μM)	reduction in bladder contraction (PAR [2]; compound 10 μM)	reduction in bladder contraction (PAR [2]; compound 30 μM)	amplitude of bladder contraction (PAR1 [3]; 100 μM TFLLR, compound 10 μM)	amplitude of bladder contraction (PAR1 [4]; compound 10 μM)	reduction in bladder contraction (PAR1 [4]; compound 10 μM)	amplitude of bladder contraction (PAR1 [4]; compound 30 μM)	reduction in bladder contraction / contractile response (PAR1 [4]; compound 30 μM)	effect on trypsin-induced bladder contraction versus vehicle (PAR [1]; compound 30 μM)	amplitude of bladder contraction (PAR [1]; compound 3 μM)	also measured
			CNc1nc(NC2CC2)nc2ccc3c(ccn3Cc3ccc(C(C)C)cc3)c12 [SCH203099]	divided by two	nothing was observed	0.48 ± 0.11 g	1.77 ± 0.38 g	1.04 ± 0.16 g	35%	60%	0.26 ± 0.07 g	0.73 ± 0.10 g	35%	0.49 ± 0.08 g	55%			amplitude of bladder contraction (PAR [2]; compound 3 μM): 2.05 ± 0.53 g; reduction in bladder contraction (PAR [2]; compound 3 μM): 25%; effect on TFLLR-induced bladder contraction versus vehicle (PAR1 [3]; compound 10 μM): divided by two; effect on TFLLR-induced bladder contraction at the other concentrations (PAR1 [3]; other concentrations tested): nothing was observed; reduction in bladder contraction (PAR1 [4]; compound 3 μM (no conclusive effect)): 10%
0.21 ± 0.03 g	more than 50%	0.08 ± 0.03 g	CCOc1cc2c(c(F)c1OCC)C(=N)N(CC(=O)c1cc(N3CCOCC3)c(OC)c(C(C)(C)C)c1)C2 [atopaxar, [(1-(3-tert-butyl-4-methoxy-5-morpholinophenyl)-2-(5,6-diethoxy-fluoro-1-imino-1,3-dihydro-2H-isoindol-2yl)ethanone hydrobromide]			0.36 ± 0.15 g										completely abolishes	0.74 ± 0.19 g	effect on trypsin-induced bladder contraction versus vehicle (PAR [1]; compound 1 μM): slight reduction; amplitude of bladder contraction (PAR [1]; compound 1 μM): 1.02 ± 0.20 g; reduction in bladder contraction (PAR [1]; compound 3 μM): 38%; reduction in bladder contraction (PAR [1]; compound 10 μM): 70%; decrease of bladder contraction (PAR1 [3]; 100 μM TFLLR, compound 1 μM): more than 80%
			O=C(/C=C/c1ccccc1Cl)N1CCN(Cc2ccc(F)cc2)CC1 [compound of the invention, 3-(2-Chloro-phenyl)-1-[4-(4-fluoro-benzyl)-piperazin-1-yl]-propenone]		nothing was observed		1.76 ± 0.30 g	0.92 ± 0.17 g	35%	about 70%	0.18 ± 0.04 g	0.45 ± 0.13 g	60%	0.11 ± 0.04 g	90%	divided by two		amplitude of bladder contraction (PAR [1]; compound 30 μM): 0.55 ± 0.24 g; effect on trypsin-induced bladder contraction (PAR [2]; inflamed rat bladder (cyclophosphamide), compound up to 3 μM): inactive; amplitude of bladder contraction (PAR1 [3]; 100 μM TFLLR, compound 3 μM): 0.33 ± 0.05 g; reduction in bladder contraction (PAR1 [3]; 100 μM TFLLR, compound 3 μM): 45%; reduction in bladder contraction (PAR1 [3]; 100 μM TFLLR, compound 10 μM): 70%; amplitude of bladder contraction (PAR1 [3]; 100 μM TFLLR, compound 30 μM): 0.00 ± 0.04 g; effect on TFLLR-induced bladder contraction (PAR1 [3]; compound 1 μM): inactive; effect on TFLLR-induced bladder contraction (PAR1 [3]; compound 30 μM): completely abolished; reduction in bladder contraction (PAR1 [4]; compound up to 3 μM (no conclusive effect)): 10%
0.14 ± 0.02 g	75%	0.04 ± 0.03 g	CCOC(=O)N[C@@H]1CC[C@@H]2[C@@H](C1)C[C@H]1C(=O)O[C@H](C)[C@H]1[C@H]2/C=C/c1ccc(-c2cccc(F)c2)cn1 [vorapaxar, ethyl N-[(3R,3aS,4S,4aR,7R,8aR,9aR)-4-[(E)-2-[5-(3-fluorophenyl)-2-pyridyl]vinyl]-3-methyl-1-oxo-3a,4,4a,5,6,7,8,8a,9,9a-decahydro-3H-benzo[f]isobenzofuran-7-yl]carbamate]	lesser efficacy													0.79 ± 0.14 g	amplitude of bladder contraction (PAR1 [3]; 100 μM TFLLR, compound 3 nM): 0.31 ± 0.12 g; reduction in bladder contraction (PAR1 [3]; 100 μM TFLLR, compound 3 nM): ~50%; effect on TFLLR-induced bladder contraction (PAR1 [3]; compound from 1 μM): completely abolishes; solubility [5]: low solubility
